{"source": "paper PMC11285948", "about": "“The effects of CYP2B6 inactivators on the metabolism of ciprofol” (PLOS ONE, 2024)", "key": {"[1]": {"test": "Pharmacokinetics of ciprofol in rats pretreated with psoralen, clopidogrel or CMC", "type": "in vivo, rat", "conditions": "SD, rat, plasma, iv, ciprofol 2.4 mg·kg^-1 i.v., rats No.1-8 and Mean; for concentration at 2 min: T 2.00 min; for concentration at 8 min: T 8.00 min; for concentration at 12 min: T 12.00 min; for concentration at 16 min: T 16.00 min; for concentration at 20 min: T 20.00 min; for MRT last: read-out: MRT(0-t) (converted); for Tmax: read-out: Tmax (converted)", "procedure": "5 μL of IS solution (2.5 μg·mL^-1 D6-ciprofol) was added to 100 μL of plasma and mixed. Then, 300 μL of acetonitrile was added. The mixture was vortexed for 2 min and centrifuged for 10 min, and the supernatant was transferred to an autosampler vial for HPLC-MS/MS detection.\nTwenty-four SD rats were randomly and equally divided into three groups: the control group, psoralen group and clopidogrel group. The administration scheme was as follows: the control group received 0.5% carboxy methyl cellulose by gavage (1 mL·200 g^-1), the psoralen group received 27 mg·kg^-1 psoralen by gavage, and the clopidogrel group was gavaged with 7.5 mg·kg^-1 clopidogrel. […] All rats were treated once daily for seven days. Each rat was injected with 2.4 mg·kg^-1 ciprofol via the tail vein 12 h after the end of dosing on Day 7. Rats that received ciprofol injection were placed on a flat and soft insulation pad. Timekeeping began when the rats were in the supine position and lost the righting reflex and ended when the rats could turn to the prone position successfully. The duration of loss of righting reflex (LORR) in each rat was measured. During this period, approximately 300 μL of blood was collected from the inner canthus at 2, 4, 8, 12, 16, 20, 30, 45, and 60 min after ciprofol administration, and the plasma was separated. The plasma was processed and measured as described in Section 2.4.3, and DAS 2.0 software and a noncompartmental model were used to analyse the pharmacokinetic parameters.\nIBM SPSS Statistics 27 software was used to analyse the main pharmacokinetic parameters, and GraphPad Prism 8.0.2 software was used for graphical visualization. One-way ANOVA was used, and multiple comparisons were performed using the least significant difference (LSD)-T test, for which P < 0.05 indicated a significant difference."}, "[2]": {"test": "Stability of ciprofol QC samples in liver microsome incubation system", "type": "physicochemical", "conditions": "liver microsomes; for ciprofol found after storage, Autosampler / ciprofol found after storage, Room Temperature: n = 5; for Stability: calculated concentration: single replicates", "procedure": "The incubation system was removed from the water bath, and the reaction was terminated immediately by adding 800 μL of reaction termination solution (acetonitrile solution containing 5 μg·mL^-1 D6-ciprofol at 4°C). The mixture was vortexed for 2 min and centrifuged for 15 min, after which the supernatant was transferred to an autosampler vial for HPLC-MS/MS detection.\nTo investigate the stability of ciprofol under a variety of conditions, three groups of liver microsome QC sample solutions were prepared, and one group was immediately processed and analysed as described in Section 2.4.2. Another group was stored at room temperature for 8 hours before treatment and assessment. The other group was treated and placed in the autosampler (4°C) for 24 h and subsequently analysed. In addition, simulated plasma QC samples were prepared in five groups: one group was processed and measured immediately as described in Section 2.4.3, and another group was placed in the autosampler for 24 h after treatment. The other three groups were placed at room temperature for 8 h, stored at -40°C for 30 d, frozen and thawed three times, respectively, and then processed and detected as described in Section 2.4.3. All the above samples were tested in parallel in five batches."}, "[3]": {"conditions": "6.75 mg/kg, Clopidogrel(6.75mg/kg)group"}, "[4]": {"conditions": "27 mg/kg, Psoralen(27mg/kg)group"}, "[5]": {"conditions": "Autosampler for 24 h, QC level H"}, "[6]": {"conditions": "Autosampler for 24 h, QC level L"}, "[7]": {"conditions": "Autosampler for 24 h, QC level M"}, "[8]": {"conditions": "Room - Temperature for 8 h, QC level H"}, "[9]": {"conditions": "Room - Temperature for 8 h, QC level L"}, "[10]": {"conditions": "Room - Temperature for 8 h, QC level M"}}, "note": "“And” between values parts separate entries of the source, which are not always exact repeats. Identical values can stand only once. Like-named read-outs stand apart in the source and are kept apart here."}
{"compound": "CC(C)c1cccc([C@H](C)C2CC2)c1O", "note": "[ciprofol]", "values": [{"measurement": "concentration at 2 min", "setting": "[1]; [3]", "value": 1050, "unit": "ng/mL"}, {"measurement": "concentration at 8 min", "setting": "[1]; [3]", "value": 406, "unit": "ng/mL"}, {"measurement": "concentration at 12 min", "setting": "[1]; [3]", "value": 334, "unit": "ng/mL"}, {"measurement": "concentration at 16 min", "setting": "[1]; [3]", "value": 266, "unit": "ng/mL"}, {"measurement": "concentration at 20 min", "setting": "[1]; [3]", "value": 193, "unit": "ng/mL"}, {"measurement": "concentration at 45 min", "setting": "[1]; 6.75 mg/kg, Clopidogrel(6.75mg/kg)group, T 45.00 min", "value": 65.7, "unit": "ng/mL"}, {"measurement": "concentration at 60 min", "setting": "[1]; 6.75 mg/kg, Clopidogrel(6.75mg/kg)group, T 60.00 min", "value": 43.3, "unit": "ng/mL"}, {"measurement": "Cmax", "setting": "[1]; [3]", "value": 1490, "unit": "ng/mL"}, {"measurement": "clearance", "setting": "[1]; 6.75 mg/kg, Clopidogrel(6.75mg/kg)group, read-out: CLz", "value": 130, "unit": "mL/min/kg"}, {"measurement": "MRT last", "setting": "[1]; [3]", "value": 12.6, "unit": "min"}, {"measurement": "concentration at 2 min", "setting": "[1]; [4]", "value": 1560, "unit": "ng/mL"}, {"measurement": "concentration at 4 min", "setting": "[1]; 27 mg/kg, Psoralen(27mg/kg)group, T 4.00 min", "value": 895, "unit": "ng/mL"}, {"measurement": "concentration at 8 min", "setting": "[1]; [4]", "value": 532, "unit": "ng/mL"}, {"measurement": "concentration at 12 min", "setting": "[1]; [4]", "value": 374, "unit": "ng/mL"}, {"measurement": "concentration at 16 min", "setting": "[1]; [4]", "value": 348, "unit": "ng/mL"}, {"measurement": "concentration at 20 min", "setting": "[1]; [4]", "value": 203, "unit": "ng/mL"}, {"measurement": "concentration at 30 min", "setting": "[1]; 27 mg/kg, Psoralen(27mg/kg)group, T 30.00 min", "value": 145, "unit": "ng/mL"}, {"measurement": "Cmax", "setting": "[1]; [4]", "value": 1490, "unit": "ng/mL"}, {"measurement": "MRT last", "setting": "[1]; [4]", "value": 13.6, "unit": "min"}, {"measurement": "MRT inf", "setting": "[1]; 27 mg/kg, Psoralen(27mg/kg)group, read-out: MRT(0-∞) (converted)", "value": 17, "unit": "min"}, {"measurement": "Vd", "setting": "[1]; 27 mg/kg, Psoralen(27mg/kg)group, read-out: Vz", "value": 2.8, "unit": "L/kg"}, {"measurement": "half-life", "setting": "[1]; 27 mg/kg, Psoralen(27mg/kg)group, read-out: t1/2z", "value": 15.4, "unit": "min"}, {"measurement": "Tmax", "setting": "[1]; Clopidogrel(6.75mg/kg)group", "value": 2, "unit": "min"}, {"measurement": "Tmax", "setting": "[1]; Control (CMC-Na)", "value": 2, "unit": "min"}, {"measurement": "Tmax", "setting": "[1]; Psoralen(27mg/kg)group", "value": 2, "unit": "min"}, {"measurement": "ciprofol found after storage, Autosampler", "setting": "[2]; QC 2.5 μg·mL^-1, autosampler (4°C) for 24 h after treatment", "value": "2.54 ± 0.11", "unit": "µg/mL"}, {"measurement": "ciprofol found after storage, Room Temperature", "setting": "[2]; QC 2.5 μg·mL^-1, room temperature for 8 h", "value": "2.53 ± 0.19", "unit": "µg/mL"}, {"measurement": "ciprofol found after storage, Autosampler", "setting": "[2]; QC 10 μg·mL^-1, autosampler (4°C) for 24 h after treatment", "value": "9.82 ± 0.44", "unit": "µg/mL"}, {"measurement": "ciprofol found after storage, Room Temperature", "setting": "[2]; QC 10 μg·mL^-1, room temperature for 8 h", "value": "10.14 ± 0.62", "unit": "µg/mL"}, {"measurement": "ciprofol found after storage, Autosampler", "setting": "[2]; QC 75 μg·mL^-1, autosampler (4°C) for 24 h after treatment", "value": "72.07 ± 4.83", "unit": "µg/mL"}, {"measurement": "ciprofol found after storage, Room Temperature", "setting": "[2]; QC 75 μg·mL^-1, room temperature for 8 h", "value": "70.43 ± 3.12", "unit": "µg/mL"}, {"measurement": "Stability: mean calculated concentration", "setting": "[2]; [5]", "value": 72.07, "unit": "µg/mL"}, {"measurement": "Stability: calculated concentration", "setting": "[2]; [5]", "value": "64.85 µg/mL and 72.55 µg/mL and 71.79 µg/mL and 72.70 µg/mL and 78.45 µg/mL"}, {"measurement": "Stability: mean calculated concentration", "setting": "[2]; [6]", "value": 2.54, "unit": "µg/mL"}, {"measurement": "Stability: calculated concentration", "setting": "[2]; [6]", "value": "2.73 µg/mL and 2.56 µg/mL and 2.49 µg/mL and 2.50 µg/mL and 2.43 µg/mL"}, {"measurement": "Stability: mean calculated concentration", "setting": "[2]; [7]", "value": 9.82, "unit": "µg/mL"}, {"measurement": "Stability: calculated concentration", "setting": "[2]; [7]", "value": "9.08 µg/mL and 9.88 µg/mL and 10.27 µg/mL and 9.89 µg/mL and 9.96 µg/mL"}, {"measurement": "Stability: mean calculated concentration", "setting": "[2]; [8]", "value": 70.43, "unit": "µg/mL"}, {"measurement": "Stability: calculated concentration", "setting": "[2]; [8]", "value": "71.38 µg/mL and 72.99 µg/mL and 69.04 µg/mL and 65.67 µg/mL and 73.05 µg/mL"}, {"measurement": "Stability: mean calculated concentration", "setting": "[2]; [9]", "value": 2.53, "unit": "µg/mL"}, {"measurement": "Stability: calculated concentration", "setting": "[2]; [9]", "value": "2.63 µg/mL and 2.49 µg/mL and 2.51 µg/mL and 2.26 µg/mL and 2.77 µg/mL"}, {"measurement": "Stability: mean calculated concentration", "setting": "[2]; [10]", "value": 10.15, "unit": "µg/mL"}, {"measurement": "Stability: calculated concentration", "setting": "[2]; [10]", "value": "9.80 µg/mL and 9.76 µg/mL and 10.83 µg/mL and 10.81 µg/mL and 9.53 µg/mL"}]}
